Counter-ions that a name gives are not always drawn.
Test system: HuH-7 cells infected with JX-594 virus
Type: cell-based

SMILES: COc1cccc2c1C(=O)c1c(O)c3c(c(O)c1C2=O)C[C@@](O)(C(=O)CO)C[C@@H]3O[C@H]1C[C@H](N)[C@H](O)[C@H](C)O1 [Adriamicyn, Doxorubicin hydrochloride]
- JX-594 viral replication in vitro: decrease
- viral output: decreased

— patent US10517910B2 (priority 2015, dated 2019)
